According to PubChem BioAssay (NCI):
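Cultured in 96-well plates, cells were exposed to test compound for 48 hours across five concentrations. GI50: concentration for 50% inhibition of growth. The concentration for full growth arrest is given as TGI.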

Key:
Experiment in all cases: NCI anticancer screen, dose series, 48 h
MCF7 breast = test system: MCF7 breast
SF-539 CNS = test system: SF-539 CNS
PC-3 prostate = test system: PC-3 prostate
HOP-62 NSCLC = test system: HOP-62 NSCLC
NCI-H460 lung = test system: NCI-H460 lung
OVCAR-8 ovarian = test system: OVCAR-8 ovarian
SK-MEL-2 melanoma = test system: SK-MEL-2 melanoma
UO-31 renal = test system: UO-31 renal
HCT-15 colon = test system: HCT-15 colon
ACHN renal = test system: ACHN renal

Row | Structure (SMILES) | GI50 (MCF7 breast) | TGI (MCF7 breast) | TGI (SF-539 CNS) | TGI (PC-3 prostate) | GI50 (HOP-62 NSCLC) | TGI (HOP-62 NSCLC) | GI50 (NCI-H460 lung) | TGI (NCI-H460 lung) | GI50 (OVCAR-8 ovarian) | TGI (OVCAR-8 ovarian) | TGI (SK-MEL-2 melanoma) | TGI (UO-31 renal) | TGI (HCT-15 colon) | GI50 (ACHN renal) | TGI (ACHN renal) | GI50 (SF-539 CNS) | GI50 (PC-3 prostate) | GI50 (SK-MEL-2 melanoma) | GI50 (UO-31 renal) | GI50 (HCT-15 colon)
1 | CC1CCC2C(C)C(=O)OC3OC4(C)CCC1C32OO4 (centres undefined) | > 100 µM | > 100 µM | > 100 µM | > 100 µM | > 100 µM | > 100 µM | > 100 µM | > 100 µM | > 100 µM | > 100 µM | > 100 µM | > 100 µM | > 100 µM | > 100 µM | > 100 µM |  |  |  |  | 
2 | Cc1ccc(-c2nc3nc(-c4ccc(F)cc4)nc(N4CCNCC4)c3o2)cc1 | 1.66 µM | 3.51 µM | 3.12 µM | 4.69 µM | 16.4 µM | 37.9 µM | 1.94 µM | 3.77 µM | 2.35 µM | 5.82 µM | 35.4 µM | 2.79 µM | 3.38 µM | 1.79 µM | 3.19 µM | 1.67 µM | 1.91 µM | 14.9 µM | 1.46 µM | 1.67 µM
3 | C[C@H](c1ccc(F)cc1CCCC(=O)O)N(c1cc(F)ccc1F)S(=O)(=O)c1ccc(Cl)cc1 | 31.2 µM | > 100 µM | 67.9 µM | > 100 µM | 24.4 µM | > 70.2 µM | 20.6 µM | 52.8 µM | 38 µM | > 100 µM | 41.7 µM | > 100 µM | 74.7 µM | 30.8 µM | > 100 µM | 24.5 µM | 26.5 µM | 19.7 µM | 25.4 µM | 22.3 µM
4 | OCc1ccc(-c2csc(-c3ccc(CO)o3)c2)o1 | 0.752 µM | > 95 µM | > 100 µM | > 100 µM | 27.1 µM | > 100 µM | 9.75 µM | > 100 µM | 31.5 µM | > 100 µM | > 100 µM | > 100 µM | > 100 µM | 43.9 µM | > 100 µM | 99.7 µM | 33.4 µM | 40.9 µM | 49.7 µM | 32.8 µM
5 | Cn1cc(C2=C(c3c4n(c5ccccc35)CCNC4)C(=O)NC2=O)c2ccccc21 | 4.78 µM | > 23.8 µM | 14.3 µM | > 25 µM | 17.5 µM | > 25 µM | 10.6 µM | > 25 µM | > 16.9 µM | > 25 µM | > 21.3 µM | > 22.2 µM | > 25 µM | 7.93 µM | > 25 µM | 5.72 µM | 7.02 µM | 8.03 µM | 4.53 µM | 5.71 µM
6 | Fc1cc(F)c(F)c(S)c1F |  | > 100 µM | > 100 µM | 42.2 µM |  | > 100 µM |  | > 100 µM |  | > 100 µM | > 100 µM | > 100 µM | > 100 µM |  | > 100 µM |  |  |  |  | 
7 | O=C(Cn1c(C(=O)c2ccc(Cl)cc2)nc(-c2ccc(Cl)cc2)c1-c1ccc(Cl)cc1)c1ccccc1 | > 100 µM | > 100 µM | > 100 µM | > 100 µM | > 100 µM | > 100 µM | > 100 µM | > 100 µM | > 100 µM | > 100 µM | > 100 µM | > 100 µM | > 100 µM | > 100 µM | > 100 µM | > 100 µM | > 100 µM | > 100 µM | > 100 µM | > 100 µM
8 | Cc1ccc([P+](Cc2ccccc2)(c2ccccc2)c2ccccc2)cc1 | 1.92 µM | > 100 µM | 50.9 µM | > 100 µM | 4.25 µM | > 100 µM | 2.33 µM | 10.5 µM | 1.74 µM | 11.3 µM | 5.63 µM | 67.7 µM | > 100 µM | 3.95 µM | > 100 µM | 3.03 µM | 1.53 µM | 2.35 µM | 10.3 µM | 19.5 µM
9 | CC1(C)CC(=O)C=C(/C=C/Sc2c(Cl)c(Cl)nc(Cl)c2Cl)C1 | 2.47 µM | 8.05 µM | 26.4 µM | 14.1 µM | 12.9 µM | 27.8 µM | 11.8 µM | 32.1 µM | 19.3 µM | 45 µM | > 100 µM | 33.4 µM | 23 µM | 11.1 µM | 23.3 µM | 11.8 µM | 3.54 µM | 70.2 µM | 10 µM | 5.64 µM
10 | O=C(CCCn1c2c(sc3ccccc32)c(=O)n2nnc(-c3ccccc3)c12)NCCc1cnc[nH]1 | 1.1 µM | 2.43 µM | 0.111 µM | 2.21 µM | 1.31 µM | 2.87 µM | 1.7 µM | 3.11 µM |  | 2.99 µM | 4.98 µM | 2.95 µM | 2.14 µM | 1.37 µM | 2.94 µM | < 0.0144 µM | 0.0603 µM | 2.37 µM | 1.42 µM | 0.505 µM
11 | O=C(/C=C/C12c3ccccc3C(c3ccccc31)C1C(=O)N(c3ccc(Cl)cc3)C(=O)C12)c1ccccn1 (centres undefined) | 0.313 µM | > 23 µM | 0.676 µM | 1.87 µM | 0.405 µM | 2.22 µM | 0.232 µM | 0.568 µM | 0.328 µM | > 100 µM | 2.74 µM | 0.399 µM | 0.66 µM | 0.234 µM | 0.56 µM | 0.258 µM | 0.331 µM | 0.529 µM | 0.178 µM | 0.206 µM
12 | Cc1ccc([Se](=C(C(=O)c2ccccc2)C(=O)c2ccccc2)c2ccc(C)cc2)cc1 |  | > 100 µM | 66 µM | 82.5 µM |  | > 100 µM |  | > 100 µM |  | > 100 µM | > 100 µM | > 100 µM | 44.7 µM |  | 77.8 µM |  |  |  |  | 
13 | CC(c1cc(Cl)ccc1O)c1cc(Cl)ccc1O | 3.19 µM | 16.5 µM | 12.9 µM | 15 µM | 3.76 µM | 17.5 µM | 2.26 µM | 4.88 µM | 4.04 µM | 19.9 µM | 7.23 µM | 10.8 µM | 16.6 µM | 3.99 µM | 14.1 µM | 3.52 µM | 3.73 µM | 2.98 µM | 2.3 µM | 4.54 µM
14 | O=C(O)CCCCn1ccc(=O)[nH]c1=O |  | > 100 µM | > 100 µM | > 100 µM |  | > 100 µM |  | > 100 µM |  | > 100 µM | > 100 µM | > 100 µM | > 100 µM |  | > 100 µM |  |  |  |  | 
